# Experimental data: a melting point compilation (Tetko et al.; mined from patent text by program, amines drawn as free bases though some values may be those of a salt)
row,melting point [°C],Structure (SMILES)
1,220 to 221,CCC(C)CNC(=O)c1ccc2cccc(Cc3ccc(C(=O)O)cc3OC)c2c1 (stereo not drawn)
2,135,COc1cccc(NC(=O)C(N)=S)c1
3,> 200,N#CCCN1CCN(c2cc3cccnc3c(-c3cccc(C#N)c3)n2)CC1
4,163 to 165,c1ccc2c(NC3CCCC3)nnc(Cc3ccncc3)c2c1
5,161 to 165,Cc1cccc(S(=O)(=O)n2c(CCC(=O)O)cc3cc(Cl)ccc32)c1
6,115 to 116,CCOC(=O)N1CCC(Nc2ccc(F)cc2[N+](=O)[O-])CC1
7,206 to 208,COc1ccc2c(C(=O)C(F)(F)F)c[nH]c2c1
8,170 to 180,Cc1ccc(C=CCC(CCC(=O)O)(C(=O)C=Cc2ccc(Cl)cc2)c2ccccc2)cc1 (stereo not drawn)
9,152 to 153,O=C1NCC(COc2cccc3c2SCCC3)O1 (stereo not drawn)
10,192 to 194,Cc1cc(Br)ccc1C(CO)NC(=O)c1c(Cl)cncc1Cl (stereo not drawn)
11,98,COc1ccc(-c2cc(Cl)cc3c2NC(CN)CO3)c(C)c1 (stereo not drawn)
12,179 to 182,Cc1noc(NS(=O)(=O)c2cc(Cl)c(Cl)cc2Cl)c1Br
13,206,CC[C@H](N)c1nc2c(C(F)(F)F)cccc2c(O)c1C(=O)Nc1nccs1
14,187 to 189,Cc1cccc(C(CCC(=O)O)Oc2cc(OCc3cccnc3)ccc2C#N)c1C (racemic)
15,82 to 82.5,Cn1nc(N)nc1NCCCCOc1cccc(CN2CCCCC2)c1
16,217 to 219,Cc1nc2c(OCc3c(Cl)ccc([N+](=O)[O-])c3Cl)cccn2c1Br
17,178 to 182,CS(=O)(=O)Nc1ccc(NC(=O)C(=O)N2CCC(Cc3ccc(F)cc3)CC2)cc1
18,186 to 187,C[C@]12CCC(=O)N[C@@H]1CCc1cc(Sc3cccc(Cl)c3)ccc12
19,90 to 92,CC(=O)NC1CCN(CCCOc2ccc3c4c(c(=O)oc3c2)CCCC4)CC1

# The next lines start with the compound.
row,Structure (SMILES),melting point [°C]
1,CCCCCc1cccc2c1C(=O)N(OC1C(O)C(CO)OC1n1cnc3c(N)ncnc31)C2=O (stereo not drawn),159 to 160
2,CCCCCCOc1ccc(C=[N+]([O-])CCC)cc1,45
3,OCC(O)Cc1nccn1CCCCc1ccc(OCc2coc(/C=C/c3ccc(F)cc3F)n2)cc1 (stereo not drawn),126 to 128
4,COc1ccc2ccccc2c1CCl,122 to 123
5,CCCC(c1ccc(C)cc1)n1cncc1C(=O)OC (stereo not drawn),141 to 143
6,O=C1CCC(CCc2ccc(-n3ccnc3)cc2)=NN1,195 to 196
7,COc1nc2cc(Cl)c(Cl)c(NS(C)(=O)=O)c2nc1OC,225 to 227
8,CCCOc1ccc2c(c1)[C@H](c1ccc(OC)cc1OCC(=O)O)[C@@H](CC(=O)O)[C@@H]2c1ccc2c(c1)OCO2 (racemic),210 to 212
9,O=C(NCCN1CCC(O)(c2ccc(Cl)cc2)CC1)c1ccccc1,169
10,O=C1SC(Cc2ccc(OCCc3c[nH]c4ccccc34)cc2)C(=O)N1C(c1ccccc1)(c1ccccc1)c1ccccc1 (stereo not drawn),81 to 82.5
11,Oc1ccc(Cl)cc1CCc1ccccn1,135 to 137
12,CC(C)(C)OC(=O)NC(CCOP(=O)(Oc1ccccc1)Oc1ccccc1)C(=O)OCc1ccccc1 (racemic),63.5 to 64
13,N#Cc1c2[nH]c(C(=O)O)cc(=O)c2cc2c(=O)cc(C(=O)O)[nH]c12,> 320
14,CCOC(=O)C1=C(COCc2nccn2C)NC(C)=C(C(=O)OC)C1c1ccccc1Cl (stereo not drawn),137 to 138
15,O=C1C2CCC(C(=O)N2Cc2ccccc2)N1Cc1ccccc1,168 to 170
16,COCC(=O)Nc1cccc(C2(C3CCN(C(=O)c4ccc(O)cc4)CC3)N=C(N)N(C)C2=O)c1 (stereo not drawn),184 to 187
17,CCOC(=O)c1cccc(NC(=O)C(CSC(C)=O)Cc2ccccc2)c1 (stereo not drawn),89 to 92
18,COc1ccc(-c2cc(-c3c(-c4ccccn4)nc4ccccn34)ccn2)cc1,222
19,CCCCCCCCCCCCCC[C@]1(C)OO[C@@H]2C[C@H]1CC(=O)[C@@H]2C,46
